The values that follow come from patent US7538085B2, “Peptide deformylase inhibitors as novel antibiotics” (The Ohio State University Research Foundation, priority 2003, dated 2009).

≈ marks a conversion by molar mass, not a printed value. Where two headings read alike, the source gives them in different places.

The target of data set [1] is T1, Co(II)-substituted E. coli PDF (Escherichia coli, UniProt P0A6K3).
T1 construct: made in house
Nature of the data set: PDF assay coupled to formate dehydrogenase. The class given is biochemical.

Data set [2] addresses MMP-3 (Homo sapiens, UniProt P08254). Nature of the data set: Inhibition of human matrix metalloproteases. It counts as biochemical. The settings on record: read-out: percentage of MMP-3 activity remaining; for remaining activity at 1 µM: inhibitor 1.0 μM; for remaining activity at 10 µM: inhibitor 10 μM. The method, then:
(§1) Inhibition of Metalloproteases (MMP) Several of the inhibitors were tested for inhibition of human matrix metalloproteases, which are often used as indicators of inhibitor selectivity (no inhibition of MMP is desired). Each inhibitor was tested at two different concentrations (1.0 and 10 μM). The values reported are the percentage of MMP activity remaining in the presence of added inhibitor.

The target of data set [3] is T2, MMP2 (Homo sapiens, UniProt P08253).
T2 sequence (P08253 110-660): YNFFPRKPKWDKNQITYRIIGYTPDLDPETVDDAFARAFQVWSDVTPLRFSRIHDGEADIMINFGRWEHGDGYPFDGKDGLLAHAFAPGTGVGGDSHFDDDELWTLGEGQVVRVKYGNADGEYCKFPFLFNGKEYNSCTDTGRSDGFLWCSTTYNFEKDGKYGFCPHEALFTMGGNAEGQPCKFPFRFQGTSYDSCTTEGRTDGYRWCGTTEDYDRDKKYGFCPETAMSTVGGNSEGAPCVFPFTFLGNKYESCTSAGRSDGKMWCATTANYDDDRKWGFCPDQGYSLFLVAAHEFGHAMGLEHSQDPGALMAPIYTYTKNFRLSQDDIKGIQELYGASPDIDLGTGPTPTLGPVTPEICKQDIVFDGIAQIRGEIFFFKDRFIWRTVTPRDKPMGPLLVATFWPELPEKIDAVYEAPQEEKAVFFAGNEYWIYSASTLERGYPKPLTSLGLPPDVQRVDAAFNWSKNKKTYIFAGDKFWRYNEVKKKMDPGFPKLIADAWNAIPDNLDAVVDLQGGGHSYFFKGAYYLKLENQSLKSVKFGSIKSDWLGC
The experiment in a line: Inhibition of human matrix metalloproteases. The class given is biochemical. The settings on record: read-out: percentage of MMP2 activity remaining; for remaining activity at 1 µM: inhibitor 1.0 μM; for remaining activity at 10 µM: inhibitor 10 μM. Here is the method:
as §1

Data set [4] deals with T3, MMP-1 (Homo sapiens, UniProt P03956).
T3 sequence (P03956 100-469): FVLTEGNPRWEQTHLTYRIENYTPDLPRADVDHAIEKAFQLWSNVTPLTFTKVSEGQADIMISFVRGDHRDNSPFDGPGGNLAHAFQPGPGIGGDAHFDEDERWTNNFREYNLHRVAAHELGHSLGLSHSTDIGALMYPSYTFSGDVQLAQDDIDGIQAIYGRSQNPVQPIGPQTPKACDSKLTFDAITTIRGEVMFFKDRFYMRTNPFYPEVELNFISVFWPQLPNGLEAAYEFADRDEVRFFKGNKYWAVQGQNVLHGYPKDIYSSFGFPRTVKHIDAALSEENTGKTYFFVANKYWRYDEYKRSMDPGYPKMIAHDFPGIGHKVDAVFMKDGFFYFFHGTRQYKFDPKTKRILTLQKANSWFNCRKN
The experiment in a line: Inhibition of human matrix metalloproteases. It counts as biochemical. The following applies: read-out: percentage of MMP-1 activity remaining; for remaining activity at 1 µM: inhibitor 1.0 μM; for remaining activity at 10 µM: inhibitor 10 μM. Here is the method:
as §1

Data set [5] addresses MMP-9 (Homo sapiens, UniProt P14780). The experiment in a line: Inhibition of human matrix metalloproteases. It counts as biochemical. The following applies: read-out: percentage of MMP-9 activity remaining; for remaining activity at 1 µM: inhibitor 1.0 μM; for remaining activity at 10 µM: inhibitor 10 μM. The method, then: as §1
Data set [6] deals with E. coli. The experiment in a line: Antibacterial activity (cell growth, MIC). The class given is cell-based. The following applies: Escherichia coli. The method, then: (§2) FIG. 5 Inhibition of B. subtilis (A) and E. coli (B) cell growth by inhibitor 2. An overnight culture was diluted 1000-fold into 2 mL of fresh LB medium containing the specified concentrations of inhibitor 2 and incubated at 37° C. Cell densities were measured at the specified times on a UV-vis spectrophotometer.
(§3) The in vitro antibacterial activity of the cyclic inhibitor was tested against E. coli and Bacillus subtilis, the representative Gram-negative and Gram-positive bacteria, respectively.
(§4) Antimicrobial Susceptibility Testing. For Escherichia coli and Bacillus subtilis, cell growth was monitored on the Lambda-20 UV/Vis spectrophotometer at 600 nm. A single bacterial colony from a plate culture was grown overnight in LB media and was diluted 1000-fold into 2 mL of fresh growth medium containing 0-64 μg/mL of test agent in a 5-mL glass test tube shaken at a speed of 250 rpm. Cell growth (at 37° C.) was monitored for 0-600 min.
(§5) Antibacterial Activity of PDF Inhibitors Inhibitors 2-7E were tested against two or more bacterial strains for antibacterial activities.

Data set [7] deals with B. subtilis. Nature of the data set: Antibacterial activity (cell growth, MIC). The following applies: Bacillus subtilis, read-out: MIC. The class given is cell-based. The method, then: as §2, §3, §4, §5
Data set [8] relates to S. pneumoniae (ATCC 49619). The experiment in a line: Antibacterial activity (MIC). The following applies: Streptococcus pneumoniae, ATCC49619. The class given is cell-based. Here is the method:
as §5

In data set [9] the test system is H. influenzae (ATCC 31517). The experiment in a line: Antibacterial activity (MIC). The following applies: Haemophilus influenzae, ATCC31517. It counts as cell-based. Here is the method: as §5
In data set [10] the test system is E. faecalis (ATCC 29212). Nature of the data set: Antibacterial activity (MIC). The class given is cell-based. The following applies: Enterococcus faecalis, ATCC29212. The method, then:
as §5

Data set [11] relates to S. pneumoniae (ATCC 6303). Nature of the data set: Antibacterial activity (MIC). The class given is cell-based. The following applies: Streptococcus pneumoniae, ATCC6303. The method, then: as §5
Data set [12] has as its system S. pneumoniae (ATCC 6301). Nature of the data set: Antibacterial activity (MIC). The class given is cell-based. The settings on record: Streptococcus pneumoniae, ATCC6301. Here is the method: as §5
For data set [13], the system named is M. catarrhalis (ATCC 37054). The experiment in a line: Antibacterial activity (MIC). The class given is cell-based. The settings on record: Moraxella catarrhalis, ATCC37054. The method, then:
as §5

Data set [14] has as its system S. aureus (ATCC 29213). Nature of the data set: Antibacterial activity (MIC). It counts as cell-based. The following applies: Staphylococcus aureus, ATCC29213. Here is the method:
as §5

Data set [15] is described as follows: Stability of inhibitors in rat plasma. The class given is in vitro ADME. The following applies: 37° C., LC-MS. Here is the method: FIG. 7 Comparison of the in vitro stability of PDF inhibitors 6 (cyclic) and 9 (acyclic) in rat plasma.
Stability of Inhibitors Inhibitors 6E and comparative compound 9 were chosen to test for the effect of cyclization on inhibitor stability. They both have an L-lysine as the P2′ residue and are expected to be sensitive to proteolytic degradation by trypsin-like enzymes. Both inhibitors were incubated in rat plasma at 37° C. and aliquots were withdrawn at various times and analyzed by LC-MS. […] Our attempts to identify the degradation products by mass spectrometry failed.

For data set [16], the system named is human matrix metalloproteases. Nature of the data set: Inhibition of human matrix metalloproteases, overall statement. The class given is biochemical. The settings on record: MMP-1, MMP2, MMP-3, MMP-9; 1.0 and 10 μM. Here is the method: Inhibition of Metalloproteases (MMP) Several of the inhibitors were tested for inhibition of human matrix metalloproteases, which are often used as indicators of inhibitor selectivity (no inhibition of MMP is desired). Each inhibitor was tested at two different concentrations (1.0 and 10 μM). The values reported are the percentage of MMP activity remaining in the presence of added inhibitor. […] The acyclic inhibitors are flexible and can adopt different conformations to fit the active sites of both PDF and MMP's.

Setting [17] is: formate dehydrogenase-coupled assay, 4 nM E. coli PDF, pH 7.0, read-out: K1 (apparent inhibition constant).

T1 sequence (P0A6K3 whole entry): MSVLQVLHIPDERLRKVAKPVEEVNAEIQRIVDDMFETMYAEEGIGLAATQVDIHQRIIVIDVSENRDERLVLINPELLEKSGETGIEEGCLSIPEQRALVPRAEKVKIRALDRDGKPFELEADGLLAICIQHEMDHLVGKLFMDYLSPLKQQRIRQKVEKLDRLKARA
MMP-9, sequence (P14780 94-707): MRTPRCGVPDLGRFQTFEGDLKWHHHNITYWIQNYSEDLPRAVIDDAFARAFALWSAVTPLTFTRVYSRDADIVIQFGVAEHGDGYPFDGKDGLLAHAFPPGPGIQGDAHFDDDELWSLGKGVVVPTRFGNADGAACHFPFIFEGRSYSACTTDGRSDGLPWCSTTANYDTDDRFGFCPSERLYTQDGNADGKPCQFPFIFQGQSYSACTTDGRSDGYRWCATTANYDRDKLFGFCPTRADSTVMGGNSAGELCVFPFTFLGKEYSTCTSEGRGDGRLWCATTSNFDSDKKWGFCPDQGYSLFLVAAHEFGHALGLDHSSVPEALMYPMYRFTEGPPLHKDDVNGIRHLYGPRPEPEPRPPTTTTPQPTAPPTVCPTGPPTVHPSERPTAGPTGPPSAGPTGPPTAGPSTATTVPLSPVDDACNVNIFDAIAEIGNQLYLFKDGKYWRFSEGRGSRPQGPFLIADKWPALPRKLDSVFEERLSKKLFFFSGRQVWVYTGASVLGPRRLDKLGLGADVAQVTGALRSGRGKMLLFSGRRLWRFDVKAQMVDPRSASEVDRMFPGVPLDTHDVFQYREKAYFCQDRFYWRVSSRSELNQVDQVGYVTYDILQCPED
MMP-3, sequence (P08254 100-477): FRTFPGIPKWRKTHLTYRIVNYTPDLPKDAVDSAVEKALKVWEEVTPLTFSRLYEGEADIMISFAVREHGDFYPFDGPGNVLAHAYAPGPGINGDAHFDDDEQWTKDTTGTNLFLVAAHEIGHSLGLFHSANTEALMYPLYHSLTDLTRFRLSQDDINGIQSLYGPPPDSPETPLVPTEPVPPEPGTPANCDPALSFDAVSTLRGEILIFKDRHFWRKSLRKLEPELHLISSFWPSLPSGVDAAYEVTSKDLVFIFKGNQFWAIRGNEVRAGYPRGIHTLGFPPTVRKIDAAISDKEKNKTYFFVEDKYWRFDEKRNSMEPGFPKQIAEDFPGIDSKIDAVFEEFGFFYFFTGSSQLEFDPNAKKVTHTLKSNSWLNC

In the case of `CCCC[C@H](CN(O)C=O)C(=O)N[C@H](C(=O)N(C)C)C(C)(C)C` [BB-3497, reference compound], the Ki in [1] (setting [17]) is approximately 7 nM.
As a reminder, the remaining activity is the activity still measured, relative to the control. As to `CC(C)(C)[C@@H]1NC(=O)[C@@H](CN(O)C=O)CCCCCCCNC1=O` [Compound 1E], the Ki in data set [1] (setting [17]) was 14 ± 3 nM. Further, the remaining activity at 1 µM turned out to be 97% in data set [2], 90% in [3], 100% in data set [4] and 92% in [5]. The remaining activity at 10 µM in [2] was found to be 80%; in [3] it was 85%; in data set [4] it was 99%; in data set [5] it was 89%.
For the compound `CC(C)(C)[C@@H]1NC(=O)[C@@H](CN(O)C=O)CCCCCCCCCCNC1=O` [Compound 3E], in [1] (setting [17]), the Ki is 0.4 nM.
In turn, `CC(C)(C)[C@@H]1NC(=O)[C@@H](CN(O)C=O)CCCCCCCCCCCNC1=O` [Compound 4E] displayed a Ki in [1] of 0.22 nM. Besides, the MIC in [6] was more than 24 µg/mL; in [7], approximately 0.2 µg/mL (≈ 0.503 µM).
In turn, `CC(C)(C)[C@@H]1NC(=O)[C@@H](CN(O)C=O)CCCCCCCCCCCCCCNC1=O` [Compound 5E] returned a Ki in data set [1] of 25 ± 6 nM. The MIC in [8] is 8 µg/mL (≈ 18.2 µM); in data set [9] it was more than 32 µg/mL; in data set [10], more than 32 µg/mL; in data set [11] it was 4 µg/mL (≈ 9.1 µM); in data set [12], 8 µg/mL (≈ 18.2 µM); in [13], less than 0.031 µg/mL. In addition, the figures for the MIC in [14], in data set [6] and in [7] were more than 32 µg/mL, more than 24 µg/mL and approximately 16 µg/mL (≈ 36.4 µM), respectively. Moreover, the remaining activity at 1 µM in data set [2] came out at 97%; in [3], 100%; in [4] it was 93%; in data set [5], 96%. Besides, the remaining activity at 10 µM is 96% in [2], 100% in [3], 92% in data set [4] and 94% in data set [5].
In data set [1], `NCCCC[C@@H]1NC(=O)[C@@H](CN(O)C=O)CCCCCCCCCNC1=O` [Compound 6E] displayed a Ki of 3 ± 1.3 nM. The “degradation (loss) in rat plasma after 5 h” value in [15] is recorded as “no detectable degradation”. Moreover, the values for the MIC in data set [6] and in data set [7] were 4 to 8 µg/mL (≈ 10.4 to 20.8 µM) and approximately 8 µg/mL (≈ 20.8 µM), respectively.
For `NCCCC[C@@H]1NC(=O)[C@@H](CN(O)C=O)CCCCCCCCCCCCCCNC1=O` [Compound 7E], in [1], the Ki turned out to be 36 ± 9 nM. Besides, the MIC in data set [8] is more than 32 µg/mL; in data set [9], 32 µg/mL (≈ 70.4 µM); in [10] it was 32 µg/mL (≈ 70.4 µM); in data set [11], more than 32 µg/mL; in data set [12] it was more than 32 µg/mL; in [13] it was 1 µg/mL (≈ 2.2 µM). The MIC in data set [14] was 32 µg/mL (≈ 70.4 µM); in [6], more than 32 µg/mL; in data set [7], more than 32 µg/mL. Besides, the remaining activity at 1 µM turned out to be 100% in data set [2], 94% in data set [3], 99% in data set [4] and 96% in data set [5]. In addition, the remaining activity at 10 µM was determined as 94% in data set [2], 85% in [3], 93% in [4] and 95% in data set [5].
In the case of `CC(=O)NCCCC[C@@H]1NC(=O)[C@@H](CN(O)C=O)CCCCCCCCCNC1=O` [Compound 8E], the Ki in data set [1] was 12 ± 4 nM. Further, the remaining activity at 1 µM in data set [2] stood at 100%; in data set [3], 83%; in data set [4], 97%; in [5] it was 92%. Moreover, the remaining activity at 10 µM in data set [2] was 92%; in [3] it was 80%; in data set [4], 87%; in data set [5] it was 92%.
In the case of `CCCCCCNC(=O)[C@H](CCCCN)NC(=O)[C@H](CCCCC)CN(O)C=O` [Compound 9C, reference compound], in data set [16], the “inhibition of the MMPs (in words)” value is reported as “substantial inhibition of all of the MMP's”. Also, the “degradation (loss) in rat plasma after 5 h” value in [15] was “approximately 25%”. Besides, the remaining activity at 1 µM in data set [2] amounted to 19%; in data set [3], 27%; in data set [4], 50%; in data set [5], 39%. The remaining activity at 10 µM in data set [2] is 1%; in data set [3] it was 2%; in [4], 0%; in [5], 6%.
Take `CCCC[C@H](CN(O)C=O)C(=O)N[C@@H](CCCCN)C(=O)Nc1ccccc1` [Compound 10C, reference compound]: the “inhibition of the MMPs (in words)” value in data set [16] is “substantial inhibition of all of the MMP's”. This compound also returned a Ki in data set [1] of 18 ± 1 nM. Moreover, the remaining activity at 1 µM in data set [2] worked out at 32%; in [3], 66%; in data set [4] it was 50%; in [5], 46%. Further, the remaining activity at 10 µM in [2] is 27%; in [3], 45%; in data set [4], 3%; in data set [5], 11%.
